From patent US20260207626A1, “SYNTHETIC TRITERPENOIDS AND COMPOSITIONS THEREOF IN WEIGHT MANAGEMENT, SKELETAL MUSCLE FUNCTION, AND APPETITE SUPPRESSION” (The Board of Regents of the University of Texas System, priority 2022, published 2026)
“Also recorded” adds a separate entry of the source.

What was measured:
[1] = system: TNF-α; test: Quantitative RT-PCR of LPS-induced TNF-α mRNA in L6-GLUT4myc myotubes; format: cell-based, rat; conditions: 500 nM CDDO-EA 1 hr then 100 ng/ml LPS 1 hr
Protocol: Quantitative RT-PCR: L6-GLUT4myc myoblasts (4×10^4 cell/ml, 2 ml/well) were seeded on a 6-well plate and differentiated into myo-tubes with differentiation medium for 7 days. Myotubes were pre-treated with CDDO-EA 500 nM for 1 h followed by LPS 100 ng/ml (E. coli O111: B4, Sigma Aldrich) treatment for 1 h. RNA was isolated from treated myotubes using TRIzol reagent (Ambion) according to the manufacturer's instructions. Validated RT-PCR primers specific for rat TNF-α (Assay ID: Rn99999017_m1) and rat MCP-1 (Assay ID: Rn00580555_m1), or rat GAPDH (Assay ID: Rn99999916_s1) were used to quantify mRNA levels using TaqMan RNA-to-CT 1-Step Kit (Thermo Fisher Scientific), Real-time PCR was carried out using an AB7900HT Fast Real-Time PCR System (Applied Biosystems), and MCP-1 and TNF-α levels were calculated using the ΔΔCT method according to the manufacturer's instructions.

[2] = system: p38; test: Western blot of p38 phosphorylation in L6-GLUT4myc myotubes; format: cell-based, rat; conditions: CDDO-EA treated myotubes vs control
Protocol: FIG. 16B. The protein p38 has been reported to be involved in insulin-independent glucose metabolism. FIG. 16B represents results from a study performed to illustrate that CDDO-EA activated phosphorylation of p38. Immunoblotting was performed to measure the protein content of phosphorylated p38 and total p38 protein. Protein content of actin is used as a control to confirm protein loading is the same across the lanes of the immunoblot. […] The first row of horizontal bands is the Control group (bands #1, #2, and #3) content of phosphorylated p38 (P-p38) with no CDDO-EA treatment.
Western blotting and subcellular fractionation: L6-GLUT4myc myoblasts (4×10^4 cells/ml, 2 ml/well) were seeded onto 6-well dishes and differentiated with differentiation medium for 7 days. […] Protein concentrations were determined using the Pierce BCA Protein Assay (Thermo Fisher Scientific), and equal amounts of protein were separated by electrophoresis and subsequently transferred to nitrocellulose membranes. Membranes were analyzed using the following antibodies from Cell Signaling Technology: phosphorylated NF-κB (Ser536) (93 H1, cat #3033,1:1000), phosphorylated IKB-α (Ser32) (14D4, cat #2859,1:1000), IKB-α (44D4, cat #4812, 1:1000), phosphorylated p38 (Thr180/Tyr182) (cat #9211, 1:1000), p38 (cat #9212, 1:1000). […] Bands were quantitated using ImageQuant (GE Healthcare). […]

[3] = Energy expenditure (Promethion Metabolic Analyzer) in mice fed HFD with or without CDDO-EA, LFD or HFD pair-fed; format: in vivo, C57BL/6J mice; conditions: HFD + CDDO-EA (0.04%), days 3-9
Protocol: FIG. 22A and FIG. 22B. […] FIG. 22A. EE was measured 289 times in a 24-hour cycle at each day from 3-9 days of the experimental feeding. FIG. 22B. Average EE for days 3-9 of experimental feeding. C57BL/6J mice were fed a HFD with or without incorporation of CDDO-EA (diet containing 0.04% CDDO-EA) or LFD or HFD pair-fed for 6 weeks (n=5).
(§1) C57BL/6J mice (6-8 weeks old, male, strain #000664, The Jackson Laboratory) were divided into four (4) groups (i)-(iv)): (i) ad libitum Low fat caloric content (LFD-10% of total calories from fat caloric content, #TD.08806, Envigo), (ii) ad libitum HFD (60% of total calories from fat caloric content, #TD.06414, Envigo), (iii) HFD+CDDO-EA (diet containing 0.04% CDDO-EA), and (iv) HFD pair-fed to food intake of mice fed HFD+CDDO-EA. The study was for 6 weeks (42 days) (performed at Vanderbilt Metabolic Mouse Phenotyping Center (VMMPC)). Mice were singly housed in a Promethion Metabolic Analyzer and were monitored continuously for 7 days to assess feeding and EE.

[4] = Body composition by NMR at 42 days; format: in vivo, C57BL/6J mice; conditions: all groups
Protocol: FIG. 24—Body composition at 42 days. Body composition was measured by NMR. C57BL/6J mice were fed a HFD with or without incorporation of CDDO-EA (diet containing 0.04% CDDO-EA) or LFD or HFD pair-fed for 6 weeks (n=5). BW=body weight. Data are represented as mean±SEM (Two-way Repeated Measures ANOVA).
as §1

CCNC(=O)[C@]12CCC(C)(C)C[C@H]1C1C(=O)C=C3[C@@]4(C)C=C(C#N)C(=O)C(C)(C)[C@@H]4CC[C@@]3(C)[C@]1(C)CC2 (stereo partly drawn) [CDDO-EA, (4aS,6aR,6bS,8aR,12aS,14bS)-11-cyano-N-ethyl-2,2,6a,6b,9,9,12a-heptamethyl-10,14-dioxo-1,3,4,5,6,6a,6b, 7,8,8a,9,10,12a, 14,14a, 14b-hexadecahydropicene-4a (2H)-carboxamide]
LPS-induced TNF-α mRNA expression [1]: lowered LPS-induced mRNA levels of TNF-α and MCP-1; also recorded: blocked the mRNA expression of LPS-induced TNF-α and MCP-1; also recorded: reduced LPS-induced TNF-α and MCP-1 gene expression levels; also recorded: inhibits LPS-inducted TNF-α and MCP-1 gene expression
p38 phosphorylation (normalized to total p38, percent over control) [2]: effective for inducing p38 phosphorylation; also recorded: two-fold increase in activation of p38 phosphorylation; also recorded: activates GLUT4 translocation to cell membrane and p38 phosphorylation
total p38 protein expression [2]: had no effect on p38 protein expression
energy expenditure (EE) [3]: does not affect EE; also recorded: does not affect energy expenditure
lean mass [4]: no difference in lean mass between the groups
